One experiment deals with NCI-H358 cells. The experiment is described as follows: Anti-proliferation experiment of H358 cells (CellTiter-Glo). Type of experiment: cell-based. The settings on record: Homo sapiens, 120 h, 5 days. As for the experimental part: RPMI-1640 culture medium, penicillin/streptomycin antibiotics purchased from Wisent, and fetal bovine serum purchased from Biosera. CellTiter-Glo (chemiluminescence detection reagent for cell viability) reagent purchased from Promega. NCI-H358 cell line purchased from the Cell Bank of the Chinese Academy of Sciences. Nivo multi-label analyzer (PerkinElmer).
NCI-H358 cells were seeded in a white 96-well plate with 80 μL of cell suspension per well, which contained 4000 NCI-H358 cells. The cell plate was incubated overnight in a carbon dioxide incubator.
The compounds to be tested were diluted 3-fold with a row gun to the ninth concentration, that is, from 2 mM to 304 nM, and a double-duplication experiment was set up. 78 μL of culture medium was added to a middle plate, and then 2 μL of gradient diluted compound per well was transferred to the middle plate according to the corresponding position. After being thoroughly mixed, 20 μL per well was transferred to the cell plate. The concentration range of the compound transferred to the cell plate was 10 μM to 1.52 nM. The cell plate was placed in the carbon dioxide incubator for 5 days. Another cell plate was prepared, and the signal value was read as the maximum value (Max value in the equation below) on the day of administration to participate in data analysis. 25 μL of cell viability chemiluminescence detection reagent was added to each well of the cell plate, and incubated at room temperature for 10 minutes to stabilize the luminescence signal. A multi-label analyzer was used for reading.
25 μL of cell viability chemiluminescence detection reagent was added to each well of the cell plate, and incubated at room temperature for 10 minutes to stabilize the luminescence signal. A multi-label analyzer was used for reading.
Using the equation (Sample−Min)/(Max−Min)*100% to convert the raw data into inhibition rate, and the value of IC50 might be obtained by curve fitting with four parameters (obtained by “log (inhibitor) vs. response—Variable slope” mode in GraphPad Prism). Table 1 provides the inhibitory activity of the compounds of the present disclosure on the proliferation of NCI-H358 cells.

The subject of experiment [1] is H358 human non-small cell lung cancer cell line. Briefly: Anti-tumor activity test on in vivo H358 xenograft tumor model. Also noted: species or system Female Balb/c nude mice. The conditions noted are these: for T/C / TGI: 28 days; for mean tumor volume: 28 days after administration. From the text:
Human non-small cell lung cancer H358 was used to investigate the tumor-inhibitory effect of the compound to be tested alone in an in vivo tumor model.
Female Balb/c nude mice were subcutaneously inoculated with the H358 human non-small cell lung cancer cell line, randomly grouped on the 6th day after inoculation according to tumor size and animal body weight, and administered as described below.
Vehicle control group: The administration was started in the afternoon of the grouping day, once a day, and the vehicle (10% DMSO/60% PEG400/30% deionized water) was intragastrically administered at a dose of 0.1 mL/10 g body weight for 28 consecutive days.
Administration group: The administration was started in the afternoon of the grouping day, once a day, and 3 groups were intragastrically administered with compound 1D (10% DMSO/60% PEG400/30% deionized water) at the doses of 1 mg/kg, 3 mg/kg and 10 mg/kg body weight, respectively, for 28 consecutive days.
During the experiment, the mice were weighed twice a week, and the tumor volume was measured (tumor volume was calculated according to the formula of length×width^2/2). The tumor inhibition rate TGI (%) was calculated according to the formula TGI (%)=[(1−mean tumor volume at the end of administration of a treatment group−mean tumor volume at the time of group administration of the treatment group)/(mean tumor volume at the end of treatment of vehicle control group−mean tumor volume at the time of group administration of vehicle control group)]×100%.
The relative tumor volume was calculated as RTV=TVn/TV1×100%
Where TV1 was the tumor volume on the day of group administration, and TVn was the tumor volume on the day of measurement.
Relative tumor proliferation rate (T/C %)=RTVt/RTVc×100%
Where RTVt was the mean relative tumor volume of the treatment group, and RTVc was the mean relative tumor volume of the vehicle control group.

Setting [2] is: 1 mg/kg intragastric once a day.
The mark [3] stands for this setting: 3 mg/kg intragastric once a day.
The mark [4] stands for this setting: 10 mg/kg intragastric once a day.

A word on the IC50: it is the concentration that gives 50% inhibition. A lower IC50 goes with greater potency in that assay. In general, T/C refers to the result in the treated group divided by that in the control group, in per cent.

With `C=CC(=O)N1CCN2c3c(c(=O)n(-c4c(C)ccnc4C(C)C)c4c(=O)n(-c5c(N)c(Cl)cc(Cl)c5F)c(C(F)(F)F)cc34)OCC[C@H]2C1` [Compound 1D], the concentration for half-maximal inhibition (IC50) with NCI-H358 cells worked out at 0.917 nM. In experiment [1] (setting [2]), the T/C is 51.35%, the TGI was 58.78% and the mean tumor volume came out at 341.36 mm^3. In experiment [1] (setting [3]), the T/C is reported as 27.59%, the TGI was 84.17% and the mean tumor volume was 199.4 mm^3. Further, in experiment [1] (setting [4]), the T/C amounted to 5.76%, the TGI came out at 113.19% and the mean tumor volume was found to be 37.5 mm^3.
